The assay addresses deoxyguanosine kinase (Homo sapiens). Put plainly: Inhibition of human dGK assessed as […] phosphorylation.

Consider `CCCCCCCC(=O)O[C@H]1[C@H](O)[C@@H](CO)O[C@H]1n1cnc2c(=O)[nH]c(N)nc21` [9-(2'-O-octanoyl-beta-D-arabinofuranosyl)guanine], for which the IC50 (in general, the point on the concentration scale where inhibition reaches its midpoint) was greater than 500 µM. Regarding `CCCCCCCC(=O)Nc1nc2c(ncn2[C@@H]2O[C@H](CO)[C@@H](O)[C@@H]2OC(=O)CCCCCCC)c(=O)[nH]1` [N2-octanoyl-9-(2'-O-octanoyl-beta-D-arabinofuranosyl)guanine], the IC50 was greater than 500 µM.

Values taken from BindingDB's records for doi:10.1016/j.bmc.2007.01.049 (University of Ferrara, 2007).
